Results published in patent US11844777B2, “Methods of treating autoimmune microvascular disorders” (PRIMUS PHARMACEUTICALS, INC., priority 2017, dated 2023).

Experiments:
hamster cheek pouch = conditions: pretreatment with 2, 20, 80 and 160 mg/kg/d; ischemia/reperfusion; cited from earlier work
[1] = tested on: leukocyte and endothelial cell adhesion molecules; conditions: variety of ischemia/reperfusion models; cited from earlier work
[2] = cited from earlier work
[3] = tested on: streptozotocin-induced diabetic hamster cheek pouch; conditions: cited from earlier work
rabbit ear veins = conditions: 300 mg/kg/d from 7 days before to 4 days after sclerotherapy; p<0.001; cited from earlier work
digital ulcers = test: randomized, double blind, placebo controlled clinical trial of diosmin on digital ulcers; type: in vivo, human
Method: To evaluate the effect of diosmin on Raynaud's and digital ulcers, a randomized, double blind, placebo controlled clinical trial was conducted. In this trial, subjects were randomized to receive either 600 mg of diosmin or matching placebo twice daily. The trial recorded improvement/healing of ulcers. Subjects with ulcers who were not on active ulcer therapy were required to have at least one stable or worsening digital ulcer for at least one month and subjects receiving ulcer therapy were required to have at least one stable or worsening ulcer on stable therapy for at least two months and therapy was required to remain constant for the duration of the trial.

COc1ccc(-c2cc(=O)c3c(O)cc(O[C@@H]4O[C@H](CO[C@@H]5O[C@@H](C)[C@H](O)[C@@H](O)[C@H]5O)[C@@H](O)[C@H](O)[C@H]4O)cc3o2)cc1O [diosmin, (7-[[6-O-(6-Deoxy-α-L-mannopyranosyl)-β-D-glucopyranosyl]oxy]-5-hydroxy-2-(3-hydroxy-4-methoxyphenyl)-4H-1-benzopyran-4-one)]
arteriolar vasodilation, reduction in flow velocity and decrease in functional capillary density (hamster cheek pouch): reversed all these changes towards normal in a dose dependent manner | overexpression of leukocyte and endothelial cell adhesion molecules [1]: inhibit | form found in blood after oral ingestion [2]: Diosmetin | number of leukocytes adhering to the endothelium after reperfusion ([3]; after reperfusion following 30 minutes of ischemia): deceased as did the number of leukocytes adhering to the endothelium | number of capillary leaks induced by each of the test articles, bradykinin, and LTB4 ([3]; pretreatment with diosmin, diabetic hamster cheek pouch): significantly reduced | functional capillary density (rabbit ear veins): preserved | increase in venous and arteriolar diameter (rabbit ear veins): prevented | number of adherent leukocytes (rabbit ear veins): reduced | number of capillary leakage sites (rabbit ear veins): reduced | perivenous edema (rabbit ear veins): reduced | Number of New Ulcers Appearing between Baseline and Week 4 (digital ulcers; 600 mg diosmin twice daily, Week 4, all digital ulcers (including 9 ulcers in 4 non-scleroderma subjects)): 14 | Number of Ulcers Healed at Week 4 Relative to Baseline (digital ulcers; 600 mg twice daily, Week 4, healed/total ulcers, p 0.1251 vs placebo): 18/43 | Number with >= 50% Improvement at Week 4 Relative to Baseline (digital ulcers; 600 mg twice daily, Week 4, improved/total ulcers, p 0.0905 vs placebo): 23/43 | % with >= 50% Improvement at Week 4 Relative to Baseline (digital ulcers; 600 mg twice daily, Week 4, p 0.0905 vs placebo): (53.5%) | % of Ulcers Healed at Week 4 Relative to Baseline (digital ulcers; 600 mg twice daily, Week 4, p 0.1251 vs placebo): (41.9%) | Number of Ulcers Healed at Week 8 Relative to Baseline (digital ulcers; 600 mg twice daily, Week 8, healed/total ulcers, p 0.0113 vs placebo): 31/42 | Number of Ulcers Healed at Week 8 Relative to Week 4 (digital ulcers; 600 mg twice daily, Week 8, healed/total ulcers, p 0.0600 vs placebo): 18/37 | Number with >= 50% Improvement at Week 8 Relative to Baseline (digital ulcers; 600 mg twice daily, Week 8, improved/total ulcers, p 0.0018 vs placebo): 39/42 | Number with >= 50% Improvement at Week 8 Relative to Week 4 (digital ulcers; 600 mg twice daily, Week 8, improved/total ulcers, p 0.0207 vs placebo): 25/37 | % with >= 50% Improvement at Week 8 Relative to Baseline (digital ulcers; 600 mg twice daily, Week 8, p 0.0018 vs placebo): (92.9%) | % of Ulcers Healed at Week 8 Relative to Baseline (digital ulcers; 600 mg twice daily, Week 8, p 0.0113 vs placebo): (73.8%) | % with >= 50% Improvement at Week 8 Relative to Week 4 (digital ulcers; 600 mg twice daily, Week 8, p 0.0207 vs placebo): (67.6%) | % of Ulcers Healed at Week 8 Relative to Week 4 (digital ulcers; 600 mg twice daily, Week 8, p 0.0600 vs placebo): (48.6%)
